Laboratory results published in patent US10167262B2, “Herbicidal substituted 3-arylpyrazoles” (FMC CORPORATION, priority 2014, dated 2019).
Like-named read-outs stand apart in the source and are kept apart here.

Assays:
Format in all cases: in vivo
[1] = system: barnyardgrass (Echinochloa crus-galli); test: Test A pre-/postemergence greenhouse herbicide test, visual injury rating 0-100; conditions: for pest or weed control at 500 g/ha: 500 g ai/ha
In short: (§1)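 Scale 0–100 (none to complete control), visual, versus untreated controls after approx. 10 greenhouse days. Pre: directed soil spray at planting. Post: 2–10 cm, one- to two-leaf plants. Non-phytotoxic solvent plus surfactant vehicle.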

corn (Zea mays) = test: as above; conditions: for plant injury at 500 g/ha: 500 g ai/ha
In short: as §1

[2] = system: giant foxtail (Setaria faberii); test: as above; conditions: for pest or weed control at 500 g/ha: 500 g ai/ha
In short: as §1

[3] = system: large (Lg) crabgrass (Digitaria sanguinalis); test: as above; conditions: for pest or weed control at 500 g/ha: 500 g ai/ha
In short: as §1

[4] = system: morningglory (Ipomoea spp.); test: as above; conditions: for pest or weed control at 500 g/ha: 500 g ai/ha
In short: as §1

[5] = system: pigweed (Amaranthus retroflexus); test: as above; conditions: for pest or weed control at 500 g/ha: 500 g ai/ha
In short: as §1

[6] = system: velvetleaf (Abutilon theophrasti); test: as above; conditions: for pest or weed control at 500 g/ha: 500 g ai/ha
In short: as §1

[7] = system: wheat (Triticum aestivum); test: as above; conditions: for plant injury at 500 g/ha: 500 g ai/ha
In short: as §1

[8] = system: blackgrass (Alopecurus myosuroides); test: Test C pre-/postemergence greenhouse test, plant response rating 0-100; conditions: Alopecurus myosuroides; for pest or weed control at 62 g/ha: 62 g ai/ha; for pest or weed control at 125 g/ha: 125 g ai/ha; for pest or weed control at 250 g/ha: 250 g ai/ha
In short: (§2)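 Visual rating vs controls after 13–15 d greenhouse; 0 = no effect, 100 = complete control. Pre: seeds in loam/sand, treated at planting. Post: seedlings 2–18 cm (1–4 leaf) in peat-based mix. Compounds in surfactant-containing non-phytotoxic solvent.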

[9] = system: ragweed (common ragweed, Ambrosia elatior); test: as above; conditions: Ambrosia artemisiifolia; for pest or weed control at 62 g/ha: 62 g ai/ha; for pest or weed control at 125 g/ha: 125 g ai/ha; for pest or weed control at 250 g/ha: 250 g ai/ha
In short: as §2

[10] = system: chickweed (common chickweed, Stellaria media); test: Test C postemergence greenhouse test, plant response rating 0-100; conditions: Stellaria media, post-emergence
In short: (§3)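 Formulated compounds applied postemergence; plants 1- to 4-leaf stage. Evaluated visually vs. untreated controls after roughly two weeks (13–15 d) under greenhouse conditions; 100 denotes complete control.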

kochia (Kochia scoparia) = test: as above; conditions: Bassia scoparia, post-emergence
In short: as §3

wild oat (Avena fatua) = test: as above; conditions: Avena fatua, post-emergence
In short: as §3

[11] = post-emergence, Postemergence, scale 0 to 100
[12] = post-emergence, Postemergence, 500 g ai/ha, scale 0 to 100
[13] = pre-emergence, Preemergence, read-out: Plant response rating, Blackgrass
[14] = post-emergence, Postemergence, read-out: Plant response rating (0 to 100), Ragweed
[15] = pre-emergence, Preemergence, read-out: Plant response rating, Ragweed

O=C(c1ccccc1)c1cn(CO)nc1-c1cc(Cl)cc(Cl)c1 [Compound 15, [3-(3,5-dichlorophenyl)-1-(hydroxymethyl)-1H-pyrazol-4-yl]phenylmethanone]
70%: pest or weed control at 62 g/ha (kochia (Kochia scoparia); 62 g ai/ha)
90%: pest or weed control at 500 g/ha ([5]; Amaranthus retroflexus, post-emergence, 240 h, Postemergence, read-out: Plant response rating (0 to 100 scale), Pigweed) | pest or weed control at 500 g/ha ([6]; Abutilon theophrasti, post-emergence, 240 h, Postemergence, read-out: Plant response rating (0 to 100 scale), Velvetleaf) | pest or weed control at 500 g/ha ([6]; Abutilon theophrasti, pre-emergence, 240 h, Preemergence, read-out: Plant response rating (0 to 100 scale), Velvetleaf) | pest or weed control at 500 g/ha (kochia (Kochia scoparia); 500 g ai/ha, scale 0 to 100)
60%: pest or weed control at 62 g/ha [9, 14]
40: Velvetleaf plant response rating (0 = no effect, 100 = complete control) ([6]; Preemergence, 125 g ai/ha)
80%: pest or weed control at 125 g/ha ([5]; Amaranthus retroflexus, post-emergence, 240 h, Postemergence, 125 g ai/ha, read-out: Plant response rating (0 to 100 scale), Pigweed) | pest or weed control at 125 g/ha ([6]; Abutilon theophrasti, post-emergence, 240 h, Postemergence, 125 g ai/ha, read-out: Plant response rating (0 to 100 scale), Velvetleaf)
95%: pest or weed control at 125 g/ha [9, 15] | pest or weed control at 62 g/ha ([10]; 62 g ai/ha) | pest or weed control at 125 g/ha ([10]; 125 g ai/ha)
85%: pest or weed control at 250 g/ha [9, 11] | pest or weed control at 500 g/ha [9, 12] | pest or weed control at 125 g/ha (kochia (Kochia scoparia); 125 g ai/ha) | pest or weed control at 250 g/ha (kochia (Kochia scoparia); 250 g ai/ha, scale 0 to 100)
0: Barnyardgrass plant response rating (0 = no effect, 100 = complete control) ([1]; Preemergence, 125 g ai/ha) | Corn plant response rating (0 = no effect, 100 = complete control) (corn (Zea mays); Preemergence, 125 g ai/ha) | Foxtail, Giant plant response rating (0 = no effect, 100 = complete control) ([2]; Preemergence, 125 g ai/ha) | Crabgrass, Large plant response rating (0 = no effect, 100 = complete control) ([3]; Preemergence, 125 g ai/ha) | Morningglory plant response rating (0 = no effect, 100 = complete control) ([4]; Preemergence, 125 g ai/ha) | Wheat plant response rating (0 = no effect, 100 = complete control) ([7]; Preemergence, 125 g ai/ha)
0%: pest or weed control at 125 g/ha ([1]; Echinochloa crus-galli, post-emergence, 240 h, Postemergence, 125 g ai/ha, read-out: Plant response rating (0 to 100 scale), Barnyardgrass) | pest or weed control at 500 g/ha ([1]; Echinochloa crus-galli, post-emergence, 240 h, Postemergence, read-out: Plant response rating (0 to 100 scale), Barnyardgrass) | pest or weed control at 500 g/ha ([1]; Echinochloa crus-galli, pre-emergence, 240 h, Preemergence, read-out: Plant response rating (0 to 100 scale), Barnyardgrass) | plant injury at 125 g/ha (corn (Zea mays); Zea mays, post-emergence, 240 h, Postemergence, 125 g ai/ha, read-out: Plant response rating (0 to 100 scale), Corn) | plant injury at 500 g/ha (corn (Zea mays); Zea mays, post-emergence, 240 h, Postemergence, read-out: Plant response rating (0 to 100 scale), Corn) | plant injury at 500 g/ha (corn (Zea mays); Zea mays, pre-emergence, 240 h, Preemergence, read-out: Plant response rating (0 to 100 scale), Corn) | pest or weed control at 125 g/ha ([2]; Setaria faberi, post-emergence, 240 h, Postemergence, 125 g ai/ha, read-out: Plant response rating (0 to 100 scale), Foxtail, Giant) | pest or weed control at 500 g/ha ([2]; Setaria faberi, post-emergence, 240 h, Postemergence, read-out: Plant response rating (0 to 100 scale), Foxtail, Giant) | pest or weed control at 500 g/ha ([2]; Setaria faberi, pre-emergence, 240 h, Preemergence, read-out: Plant response rating (0 to 100 scale), Foxtail, Giant) | pest or weed control at 125 g/ha ([3]; Digitaria sanguinalis, post-emergence, 240 h, Postemergence, 125 g ai/ha, read-out: Plant response rating (0 to 100 scale), Crabgrass, Large) | pest or weed control at 500 g/ha ([3]; Digitaria sanguinalis, post-emergence, 240 h, Postemergence, read-out: Plant response rating (0 to 100 scale), Crabgrass, Large) | pest or weed control at 500 g/ha ([3]; Digitaria sanguinalis, pre-emergence, 240 h, Preemergence, read-out: Plant response rating (0 to 100 scale), Crabgrass, Large) | pest or weed control at 125 g/ha ([4]; Ipomoea, post-emergence, 240 h, Postemergence, 125 g ai/ha, read-out: Plant response rating (0 to 100 scale), Morningglory) | pest or weed control at 500 g/ha ([4]; Ipomoea, post-emergence, 240 h, Postemergence, read-out: Plant response rating (0 to 100 scale), Morningglory) | pest or weed control at 500 g/ha ([4]; Ipomoea, pre-emergence, 240 h, Preemergence, read-out: Plant response rating (0 to 100 scale), Morningglory) | plant injury at 125 g/ha ([7]; Triticum aestivum, post-emergence, 240 h, Postemergence, 125 g ai/ha, read-out: Plant response rating (0 to 100 scale), Wheat) | plant injury at 500 g/ha ([7]; Triticum aestivum, post-emergence, 240 h, Postemergence, read-out: Plant response rating (0 to 100 scale), Wheat) | plant injury at 500 g/ha ([7]; Triticum aestivum, pre-emergence, 240 h, Preemergence, read-out: Plant response rating (0 to 100 scale), Wheat) | pest or weed control at 62 g/ha ([8]; post-emergence, Postemergence, read-out: Plant response rating (0 to 100), Blackgrass) | pest or weed control at 125 g/ha ([8]; post-emergence, Postemergence, scale 0 to 100, read-out: Plant response rating, Blackgrass) | pest or weed control at 250 g/ha [8, 11] | pest or weed control at 500 g/ha [8, 12] | pest or weed control at 31 g/ha ([8]; pre-emergence, Preemergence, 31 g ai/ha, read-out: Plant response rating, Blackgrass) | pest or weed control at 62 g/ha [8, 13] | pest or weed control at 125 g/ha [8, 13] | pest or weed control at 250 g/ha ([8]; pre-emergence, Preemergence) | pest or weed control at 62 g/ha (wild oat (Avena fatua); 62 g ai/ha) | pest or weed control at 125 g/ha (wild oat (Avena fatua); 125 g ai/ha) | pest or weed control at 250 g/ha (wild oat (Avena fatua); 250 g ai/ha, scale 0 to 100) | pest or weed control at 500 g/ha (wild oat (Avena fatua); 500 g ai/ha, scale 0 to 100)
35%: pest or weed control at 62 g/ha [9, 15]
100%: pest or weed control at 500 g/ha ([5]; Amaranthus retroflexus, pre-emergence, 240 h, Preemergence, read-out: Plant response rating (0 to 100 scale), Pigweed) | pest or weed control at 250 g/ha ([9]; pre-emergence, Preemergence) | pest or weed control at 250 g/ha ([10]; 250 g ai/ha, scale 0 to 100) | pest or weed control at 500 g/ha ([10]; 500 g ai/ha, scale 0 to 100)
20: Pigweed plant response rating (0 = no effect, 100 = complete control) ([5]; Preemergence, 125 g ai/ha)
75%: pest or weed control at 125 g/ha [9, 14]
